According to ChEMBL document CHEMBL1201862, “PubChem BioAssay data set” (2004):
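Test compounds were applied to cells in 96-well plates for 48 hours at 5 doses. Abbreviation: GI50, concentration required for 50% inhibition of growth.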 Active and inactive are the calls of the source. No stated cut-off is given here; in the data, active = GI50 up to about 1.1 µM and inactive = higher.

Legend:
Assay in all cases: inhibition of tumour cell growth, NCI panel, 48 h
[1] = system: HCC 2998
[2] = system: SK-MEL-5
[3] = system: SF-295
[4] = system: CCRF-CEM
[5] = system: A549
[6] = system: SNB-78
[7] = system: SK-MEL-2
[8] = system: A498
[9] = system: XF498
[10] = system: Malme-3M
[11] = system: IGROV-1
[12] = system: HT-29
[13] = system: DLD-1
[14] = system: HCT-15
[15] = system: RPMI-8226
[16] = system: LXFL 529
[17] = system: OVCAR-5
[18] = system: NCI-H522
[19] = system: SNB-75
[20] = system: SK-OV-3
[21] = system: SK-MEL-28
[22] = system: M14
[23] = system: U-251
[24] = system: KM12
[25] = system: SW-620
[26] = system: SR
[27] = system: SN12C
[28] = system: LOX IMVI
[29] = system: COLO 205
[30] = system: NCI-H23
[31] = system: UACC-257
[32] = system: HL-60
[33] = system: SNB-19
[34] = system: HOP-92
[35] = system: OVCAR-4
[36] = system: SF-268
[37] = system: RXF 393
[38] = system: HOP-18
[39] = system: EKVX
[40] = system: UO-31
[41] = system: HCT-116
[42] = system: M19-MEL
[43] = system: MOLT-4
[44] = system: NCI-H226
[45] = system: 786-0
[46] = system: DMS-273
[47] = system: ACHN
[48] = system: UACC-62
[49] = system: KM-20L2
[50] = system: OVCAR-3
[51] = system: CAKI-1
[52] = system: DMS-114
[53] = system: NCI-H460
[54] = system: OVCAR-8
[55] = system: K562
[56] = system: TK-10
[57] = system: SF-539
[58] = system: HOP-62

## COc1c(Cl)c(Cl)c(OC)c2c1C(=O)C=CC2=O
[1]
  GI50: 60.3 µM (inactive)
[2]
  GI50: 34.9 µM (inactive)
[3]
  GI50: 18.5 µM (inactive)
[4]
  GI50: 3.83 µM (inactive)
[5]
  GI50: 88.7 µM (inactive)
[6]
  GI50: 13 µM (inactive)
[7]
  GI50: 17.3 µM (inactive)
[8]
  GI50: > 100 µM (inactive)
[9]
  GI50: 16.9 µM (inactive)
[10]
  GI50: 15.1 µM (inactive)
[11]
  GI50: 24.7 µM (inactive)
[12]
  GI50: 29.9 µM (inactive)
[13]
  GI50: 14.5 µM (inactive)
[14]
  GI50: 35.6 µM
[15]
  GI50: 18.2 µM (inactive)
[16]
  GI50: 15.8 µM (inactive)
[17]
  GI50: 35.5 µM (inactive)
[18]
  GI50: 17.6 µM (inactive)
[19]
  GI50: 21.4 µM (inactive)
[20]
  GI50: 76.7 µM (inactive)
[21]
  GI50: 17.7 µM (inactive)
[22]
  GI50: 19.6 µM (inactive)
[23]
  GI50: 20.7 µM (inactive)
[24]
  GI50: 17.5 µM (inactive)
[25]
  GI50: 16.8 µM (inactive)
[26]
  GI50: 10.4 µM (inactive)
[27]
  GI50: 23.4 µM (inactive)
[28]
  GI50: 15.9 µM (inactive)
[29]
  GI50: 16.2 µM (inactive)
[30]
  GI50: 40.4 µM (inactive)
[31]
  GI50: 18.1 µM (inactive)
[32]
  GI50: 2.17 µM (inactive)
[33]
  GI50: 32.1 µM (inactive)
[34]
  GI50: 15.3 µM (inactive)
[35]
  GI50: 15.3 µM (inactive)
[36]
  GI50: 15.6 µM (inactive)
[37]
  GI50: 17.1 µM (inactive)
[38]
  GI50: 44.5 µM (inactive)
[39]
  GI50: 17.4 µM (inactive)
[40]
  GI50: 17.8 µM (inactive)
[41]
  GI50: 17.8 µM (inactive)
[42]
  GI50: 18 µM (inactive)
[43]
  GI50: 2.9 µM (inactive)
[44]
  GI50: 33.5 µM (inactive)
[45]
  GI50: 17.1 µM (inactive)
[46]
  GI50: 15.2 µM (inactive)
[47]
  GI50: 15.1 µM (inactive)
[48]
  GI50: 15.6 µM (inactive)
[49]
  GI50: 68.2 µM (inactive)
[50]
  GI50: 17.3 µM (inactive)
[51]
  GI50: 22.9 µM (inactive)
[52]
  GI50: 16 µM (inactive)
[53]
  GI50: 37.8 µM (inactive)
[54]
  GI50: 17.1 µM (inactive)
[55]
  GI50: 7.85 µM (inactive)
[56]
  GI50: 20.2 µM (inactive)
[57]
  GI50: 20 µM (inactive)

## NC(=O)/N=C1/CCC2C3CCCC2C13
[1]
  GI50: > 100 µM (inactive)
[2]
  GI50: > 100 µM (inactive)
[3]
  GI50: > 100 µM (inactive)
[4]
  GI50: > 100 µM (inactive)
[5]
  GI50: > 100 µM (inactive)
[6]
  GI50: > 100 µM (inactive)
[7]
  GI50: 60.7 µM (inactive)
[9]
  GI50: > 100 µM (inactive)
[11]
  GI50: > 100 µM (inactive)
[12]
  GI50: > 100 µM (inactive)
[13]
  GI50: > 100 µM (inactive)
[15]
  GI50: > 100 µM (inactive)
[16]
  GI50: > 100 µM (inactive)
[17]
  GI50: > 100 µM (inactive)
[58]
  GI50: > 100 µM (inactive)
[18]
  GI50: > 100 µM (inactive)
[19]
  GI50: > 100 µM (inactive)
[20]
  GI50: > 100 µM (inactive)
[21]
  GI50: > 100 µM (inactive)
[22]
  GI50: > 100 µM (inactive)
[23]
  GI50: > 100 µM (inactive)
[24]
  GI50: > 100 µM (inactive)
[25]
  GI50: > 100 µM (inactive)
[26]
  GI50: > 100 µM (inactive)
[27]
  GI50: > 100 µM (inactive)
[28]
  GI50: > 100 µM (inactive)
[29]
  GI50: > 100 µM (inactive)
[30]
  GI50: > 100 µM (inactive)
[31]
  GI50: > 100 µM (inactive)
[32]
  GI50: > 100 µM (inactive)
[33]
  GI50: > 100 µM (inactive)
[34]
  GI50: > 100 µM (inactive)
[35]
  GI50: > 100 µM (inactive)
[36]
  GI50: > 100 µM (inactive)
[37]
  GI50: > 100 µM (inactive)
[38]
  GI50: > 100 µM (inactive)
[39]
  GI50: > 100 µM (inactive)
[40]
  GI50: > 100 µM (inactive)
[41]
  GI50: > 100 µM (inactive)
[43]
  GI50: > 100 µM (inactive)
[44]
  GI50: 81.5 µM (inactive)
[45]
  GI50: > 100 µM (inactive)
[46]
  GI50: > 100 µM (inactive)
[47]
  GI50: > 100 µM (inactive)
[48]
  GI50: > 100 µM (inactive)
[49]
  GI50: > 100 µM (inactive)
[50]
  GI50: > 100 µM (inactive)
[51]
  GI50: > 100 µM (inactive)
[52]
  GI50: > 100 µM (inactive)
[53]
  GI50: > 100 µM (inactive)
[54]
  GI50: > 100 µM (inactive)
[55]
  GI50: > 100 µM (inactive)
[56]
  GI50: > 100 µM (inactive)
[57]
  GI50: > 100 µM (inactive)

## CC(SC(=S)N1CCOCC1)c1cc2oc(=O)n(C)c2cc1Cl (configuration not stated)
[1]
  GI50: > 100 µM (inactive)
[2]
  GI50: 62.7 µM (inactive)
[3]
  GI50: > 100 µM (inactive)
[4]
  GI50: 19.8 µM (inactive)
[5]
  GI50: 42.2 µM (inactive)
[6]
  GI50: > 100 µM (inactive)
[7]
  GI50: > 100 µM (inactive)
[9]
  GI50: > 100 µM (inactive)
[10]
  GI50: > 100 µM (inactive)
[11]
  GI50: > 10 µM (inactive)
[12]
  GI50: > 100 µM (inactive)
[13]
  GI50: > 100 µM (inactive)
[14]
  GI50: > 100 µM
[15]
  GI50: 58.2 µM (inactive)
[16]
  GI50: 57.4 µM (inactive)
[17]
  GI50: > 100 µM (inactive)
[58]
  GI50: > 100 µM (inactive)
[19]
  GI50: 76 µM (inactive)
[20]
  GI50: > 100 µM (inactive)
[21]
  GI50: > 100 µM (inactive)
[22]
  GI50: > 100 µM (inactive)
[23]
  GI50: > 100 µM (inactive)
[24]
  GI50: > 100 µM (inactive)
[25]
  GI50: > 10 µM (inactive)
[26]
  GI50: 30.4 µM (inactive)
[27]
  GI50: > 100 µM (inactive)
[28]
  GI50: 40.9 µM (inactive)
[29]
  GI50: > 100 µM (inactive)
[30]
  GI50: > 100 µM (inactive)
[31]
  GI50: 74.5 µM (inactive)
[32]
  GI50: 39.4 µM (inactive)
[33]
  GI50: > 100 µM (inactive)
[34]
  GI50: > 10 µM (inactive)
[35]
  GI50: > 100 µM (inactive)
[36]
  GI50: > 100 µM (inactive)
[37]
  GI50: > 100 µM (inactive)
[38]
  GI50: > 100 µM (inactive)
[39]
  GI50: > 100 µM (inactive)
[40]
  GI50: > 100 µM (inactive)
[41]
  GI50: > 100 µM (inactive)
[42]
  GI50: > 100 µM (inactive)
[43]
  GI50: 56.1 µM (inactive)
[45]
  GI50: > 100 µM (inactive)
[46]
  GI50: > 100 µM (inactive)
[47]
  GI50: > 100 µM (inactive)
[48]
  GI50: > 100 µM (inactive)
[49]
  GI50: > 100 µM (inactive)
[50]
  GI50: > 100 µM (inactive)
[51]
  GI50: > 100 µM (inactive)
[52]
  GI50: 84.5 µM (inactive)
[53]
  GI50: > 100 µM (inactive)
[54]
  GI50: > 100 µM (inactive)
[55]
  GI50: 33.3 µM (inactive)
[56]
  GI50: > 100 µM (inactive)
[57]
  GI50: 76 µM (inactive)

## CCOc1ccc(NC(=O)/C(=C/c2ccccc2)C(C)=O)cc1
[1]
  GI50: 13.3 µM (inactive)
[2]
  GI50: 12.2 µM (inactive)
[3]
  GI50: 13.5 µM (inactive)
[4]
  GI50: 2.87 µM (inactive)
[5]
  GI50: 22.2 µM (inactive)
[6]
  GI50: 13.4 µM (inactive)
[7]
  GI50: 13.2 µM (inactive)
[8]
  GI50: 18.1 µM (inactive)
[9]
  GI50: 14.4 µM (inactive)
[10]
  GI50: 16.5 µM (inactive)
[11]
  GI50: 10.2 µM (inactive)
[12]
  GI50: 10.3 µM (inactive)
[13]
  GI50: 7.38 µM (inactive)
[14]
  GI50: 8.99 µM
[15]
  GI50: 2.94 µM (inactive)
[17]
  GI50: 17.6 µM (inactive)
[58]
  GI50: 16.3 µM (inactive)
[18]
  GI50: 2.12 µM (inactive)
[19]
  GI50: 4.59 µM (inactive)
[20]
  GI50: 24.6 µM (inactive)
[21]
  GI50: 12.9 µM (inactive)
[22]
  GI50: 12.3 µM (inactive)
[23]
  GI50: 12.6 µM (inactive)
[24]
  GI50: 7.1 µM (inactive)
[25]
  GI50: 13.2 µM (inactive)
[27]
  GI50: 13.2 µM (inactive)
[28]
  GI50: 7.14 µM (inactive)
[29]
  GI50: 17.2 µM (inactive)
[30]
  GI50: 10.9 µM (inactive)
[31]
  GI50: 12.2 µM (inactive)
[32]
  GI50: 2.32 µM (inactive)
[33]
  GI50: 12.1 µM (inactive)
[34]
  GI50: 14.1 µM (inactive)
[35]
  GI50: 13.4 µM (inactive)
[36]
  GI50: 11.3 µM (inactive)
[37]
  GI50: 5.32 µM (inactive)
[38]
  GI50: 12.9 µM (inactive)
[39]
  GI50: 17.8 µM (inactive)
[40]
  GI50: 9.66 µM (inactive)
[41]
  GI50: 4.94 µM (inactive)
[42]
  GI50: 10.8 µM (inactive)
[43]
  GI50: 3.73 µM (inactive)
[44]
  GI50: 13.2 µM (inactive)
[45]
  GI50: 12.2 µM (inactive)
[46]
  GI50: 9.14 µM (inactive)
[47]
  GI50: 15.3 µM (inactive)
[48]
  GI50: 5.04 µM (inactive)
[49]
  GI50: 12.9 µM (inactive)
[50]
  GI50: 12.5 µM (inactive)
[51]
  GI50: 11.7 µM (inactive)
[52]
  GI50: 11.9 µM (inactive)
[53]
  GI50: 17.4 µM (inactive)
[54]
  GI50: 12.1 µM (inactive)
[55]
  GI50: 5.27 µM (inactive)
[56]
  GI50: 17.3 µM (inactive)
[57]
  GI50: 10.1 µM (inactive)
